Results from paper PMC11123841, “Discovery and Synthesis of Hydroxy-L-Proline Blockers of the Neutral Amino Acid Transporters SLC1A4 (ASCT1) and SLC1A5 (ASCT2)” (Molecules, 2024).

What was measured:
Format in all cases: cell-based
[1] = target: T1, SLC1A4 (Homo sapiens, UniProt P43007); experiment: [3H]D-serine uptake in oocytes; conditions: [3H]D-serine 100 nM, 10 µM BPOHP
T1 construct: expressed in transfected cells; host or cells: Xenopus laevis oocytes (cRNA injection)
T1 sequence (P43007 1-532): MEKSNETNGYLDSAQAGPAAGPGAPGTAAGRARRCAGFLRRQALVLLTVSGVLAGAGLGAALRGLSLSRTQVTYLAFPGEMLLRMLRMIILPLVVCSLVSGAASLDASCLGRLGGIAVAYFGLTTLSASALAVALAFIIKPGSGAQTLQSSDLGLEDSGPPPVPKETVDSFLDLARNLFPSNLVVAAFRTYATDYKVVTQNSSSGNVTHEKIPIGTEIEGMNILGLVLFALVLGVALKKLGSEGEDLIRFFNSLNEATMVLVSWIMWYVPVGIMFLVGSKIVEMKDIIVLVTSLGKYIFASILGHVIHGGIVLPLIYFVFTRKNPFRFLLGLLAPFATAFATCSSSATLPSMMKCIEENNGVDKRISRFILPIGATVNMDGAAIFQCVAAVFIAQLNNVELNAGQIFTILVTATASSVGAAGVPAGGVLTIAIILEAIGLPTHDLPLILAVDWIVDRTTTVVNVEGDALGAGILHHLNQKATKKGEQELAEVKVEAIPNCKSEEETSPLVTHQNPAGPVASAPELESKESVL
Method: page 6: vi Figure SM-3A. […] with no effect on SL[…] neutral amino acid transporters SLC38A1(ATA1), SLC38A2 (ATA2), and SLC38A4 (ATA3). SM-3B. […] by application of 10μM BPOHP. Figure SM-4. Tosic acid approach to compound 12c. (i) Tosylic acid 0.1M in THF 60◦C. (ii) […] S.Figure 3 A. […] SLC38A1(ATA1), SLC38A2 (ATA2), and SLC38A4 (ATA3). B. […] SLC7A10+SLC3A2 (asc1+4F2). […]

[2] = target: T1, SLC1A4; experiment: TEVC block of anion leak conductance in oocytes; conditions: SLC1A4; compared with ligands of refs 43, 65
From the text: (§1) The currents induced by substrates and blocked by hydroxyproline analogs shared a reversal potential shown in the current/voltage relationship consistent with the conductance originating from the same ion pore (Figure 3, inset). […] The observed dose–response relationships are independent of competing substrates, and thus provide a direct measure of the equilibrium inhibition constant (Ki). Each synthetic hydroxyproline analog was functionally assessed for its capacity to inhibit SLC1A4 and SLC1A5 leak currents with affinities reported in Table 1 as determined or approximated Ki.
(§2) Two-electrode voltage clamp (TEVC) transporter currents were recorded with a GeneClamp 500 amplifier and Digidata 1320A analog–digital interface (Molecular Devices, San Jose, CA, USA). Electrodes (0.2–1.0 MΩ) were filled with 3M KCl and the recording chamber was grounded with an agar bridge. Data were acquired with Axograph (v1.7.6) and LabChart (v7) and analyzed with Kaleidagraph software (v4.1) (Synergy, Reading, PA, USA). Uncoupled anion currents associated with the transport of substrate and block of SLC1A4 or SLC1A5 mediated leak conductance were recorded in the presence of Ringer with 50% substitution of NaCl by NaSCN to amplify the non-transported anion conductance.
(§3) Figure 3 AHPCs block a leak current in SLC1A4 and SLC1A5. […] Inset (A): The current and voltage relationship for SLC1A4 currents activated by Ala or blocked by 14b are determined by subtracting voltage jumps in buffer.

[3] = target: T2, mSLC1A5 (Mus musculus, UniProt P51912); experiment: TEVC block of anion leak conductance in oocytes; conditions: SLC1A5; compared with ligands of refs 43, 65
T2 construct: expressed in transfected cells; host or cells: Xenopus laevis oocytes (cRNA injection)
T2 sequence (P51912 1-553): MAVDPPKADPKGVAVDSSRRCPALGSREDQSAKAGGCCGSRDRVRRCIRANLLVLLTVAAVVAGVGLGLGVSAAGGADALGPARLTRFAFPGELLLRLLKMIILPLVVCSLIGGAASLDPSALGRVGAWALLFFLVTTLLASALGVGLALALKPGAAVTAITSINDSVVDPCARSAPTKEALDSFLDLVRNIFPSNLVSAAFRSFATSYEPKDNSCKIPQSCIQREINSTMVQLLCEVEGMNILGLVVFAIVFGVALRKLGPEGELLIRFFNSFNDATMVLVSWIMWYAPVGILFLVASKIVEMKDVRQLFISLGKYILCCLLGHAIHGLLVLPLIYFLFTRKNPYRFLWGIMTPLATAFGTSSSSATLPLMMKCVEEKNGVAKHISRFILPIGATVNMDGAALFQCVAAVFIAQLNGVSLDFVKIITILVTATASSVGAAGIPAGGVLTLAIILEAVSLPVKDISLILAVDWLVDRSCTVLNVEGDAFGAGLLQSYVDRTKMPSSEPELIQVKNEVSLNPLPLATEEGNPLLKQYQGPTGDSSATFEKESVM
From the text: as §1, §2, §3

[4] = target: T1, SLC1A4; experiment: Schild analysis of L-alanine dose responses
Method: We further characterized the highest affinity blocker discovered from our AHPC series, biphenyl-O-hydroxy-proline (BPOHP, 14e). […] A respective right shift in the substrate dose response was apparent with increasing concentrations of BPOHP (Figure 4C).
as §2
Figure 4 BPOHP 14e characterization as a competitive, non-transportable inhibitor. […] (D) A Schild plot showing a linear relationship between [L-ala] dose ratio and four different concentrations of BPOHP, consistent with competitive inhibition.

effect on [3H]D-serine uptake [1]: blocked | fold improvement in affinity over ligands previously reported [2]: 7–25 fold | fold improvement in affinity over ligands previously reported [3]: 7–25 fold | Kb [4]: 120 nM
SMILES: O=C(O)[C@H]1NC[C@@H](OCc2ccc(-c3ccccc3)cc2)[C@@H]1O [14e]
